Measurements published in patent US9993494B2, “Compositions and methods for treating fibrotic disease” (eFFECTOR Therapeutics, Inc., priority 2014, dated 2018).

System: normal human lung fibroblasts
Test: Ribosomal profiling: translational efficiency in TGFβ-treated fibroblasts
Assay type: cell-based
Conditions: TGFβ-treated fibroblasts
Protocol: Ribosomal profiling allows for measurement of changes in transcription and translation on a genome-wide basis accompanying TGFβ-dependent transformation of fibroblasts to myofibroblasts. Ribosomal profiles of the TGFβ-treated fibroblasts from Example 1 (about 6×10^6 cells/10 cm plate) were prepared and analyzed for changes in translational efficiencies with respect to potential disease-associated cellular changes accompanying this TGFβ-induced transformation.
Briefly, cells were washed with cold PBS supplemented with cycloheximide and lysed with 1× mammalian cell lysis buffer for 10 minutes on ice. Lysates were clarified by centrifugation for 10 minutes at 14,000 rpm and supernatants were collected. Cell lysates were processed to generate ribosomal protected fragments and total mRNA according to the instructions included with the ARTseq Ribosome Profiling Kit (Illumina, San Diego, Calif.). Sequencing of total RNA (RNA) and of ribosome-protected fragments of RNA (RPF) was carried out using RNA-Seq methodology according to the manufacturer's instructions (Illumina). To analyze the ribosomal profiles, RNA-Seq reads were processed with tools from the FASTX-Toolkit (fastq_quality_trimmer, fastx_clipper and fastx_trimmer). Unprocessed and processed reads were evaluated for a variety of quality measures using FastQC, and processed reads were mapped to the human genome using TopHat (see, e.g., Trapnell et al., Bioinformatics 25:1105, 2009). Gene-by-gene assessment of the number of fragments strictly and uniquely mapping to the coding region of each gene was conducted using HTSeq-count, a component of the HTSeq package. […] Genes with low counts in either RPF or RNA were excluded from differential analyses. Pathway and network analyses of differential data were conducted using Ingenuity Pathway Analysis (IPA).

## COC(=O)[C@H]1[C@@H](O)[C@@]2(O)c3c(OC)cc(O[C@@H]4O[C@@H]([C@H](O)CO)CO[C@H]4OC)cc3O[C@@]2(c2ccc(OC)cc2)[C@@H]1c1ccccc1 [Silvestrol]
ENSG00000125869
  renormalizing the translational profile of LAMP5: − (− = <0.9)
ENSG00000125967
  renormalizing the translational profile of NECAB3: − (− = <0.9)
ENSG00000127184
  renormalizing the translational profile of COX7C: − (− = <0.9)
ENSG00000128342
  renormalizing the translational profile of LIF: − (− = <0.9)
ENSG00000129422
  renormalizing the translational profile of MTUS1: − (− = <0.9)
ENSG00000129675
  renormalizing the translational profile of ARHGEF6: − (− = <0.9)
ENSG00000130255
  renormalizing the translational profile of RPL36: − (− = <0.9)
ENSG00000130513
  renormalizing the translational profile of GDF15: − (− = <0.9)
ENSG00000130707
  renormalizing the translational profile of ASS1: − (− = <0.9)
ENSG00000130741
  renormalizing the translational profile of EIF2S3: − (− = <0.9)
ENSG00000131469
  renormalizing the translational profile of RPL27: − (− = <0.9)
ENSG00000132031
  renormalizing the translational profile of MATN3: + (+ = 0.9 to 1.5)
ENSG00000132170
  renormalizing the translational profile of PPARG: +++ (+++ = >2.0)
ENSG00000132510
  renormalizing the translational profile of KDM6B: + (+ = 0.9 to 1.5)
ENSG00000133321
  renormalizing the translational profile of RARRES3: − (− = <0.9)
ENSG00000134897
  renormalizing the translational profile of BIVM: − (− = <0.9)
ENSG00000135390
  renormalizing the translational profile of ATP5G2: − (− = <0.9)
ENSG00000135480
  renormalizing the translational profile of KRT7: − (− = <0.9)
ENSG00000135486
  renormalizing the translational profile of HNRNPA1: − (− = <0.9)
ENSG00000136244
  renormalizing the translational profile of IL6: − (− = <0.9)
ENSG00000136942
  renormalizing the translational profile of RPL35: − (− = <0.9)
ENSG00000136999
  renormalizing the translational profile of NOV: − (− = <0.9)
ENSG00000137331
  renormalizing the translational profile of IER3: − (− = <0.9)
ENSG00000137628
  renormalizing the translational profile of DDX60: + (+ = 0.9 to 1.5)
ENSG00000137818
  renormalizing the translational profile of RPLP1: − (− = <0.9)
ENSG00000137819
  renormalizing the translational profile of PAQR5: − (− = <0.9)
ENSG00000138356
  renormalizing the translational profile of AOX1: − (− = <0.9)
ENSG00000138675
  renormalizing the translational profile of FGF5: − (− = <0.9)
ENSG00000138735
  renormalizing the translational profile of PDE5A: − (− = <0.9)
ENSG00000139354
  renormalizing the translational profile of GAS2L3: + (+ = 0.9 to 1.5)
ENSG00000139734
  renormalizing the translational profile of DIAPH3: − (− = <0.9)
ENSG00000141140
  renormalizing the translational profile of MYO19: + (+ = 0.9 to 1.5)
ENSG00000142541
  renormalizing the translational profile of RPL13A: − (− = <0.9)
ENSG00000142676
  renormalizing the translational profile of RPL11: − (− = <0.9)
ENSG00000143850
  renormalizing the translational profile of PLEKHA6: − (− = <0.9)
ENSG00000144713
  renormalizing the translational profile of RPL32: − (− = <0.9)
ENSG00000145592
  renormalizing the translational profile of RPL37: − (− = <0.9)
ENSG00000145741
  renormalizing the translational profile of BTF3: − (− = <0.9)
ENSG00000146066
  renormalizing the translational profile of HIGD2A: − (− = <0.9)
ENSG00000146592
  renormalizing the translational profile of CREB5: − (− = <0.9)
ENSG00000146966
  renormalizing the translational profile of DENND2A: − (− = <0.9)
ENSG00000147403
  renormalizing the translational profile of RPL10: − (− = <0.9)
ENSG00000147677
  renormalizing the translational profile of EIF3H: − (− = <0.9)
ENSG00000148303
  renormalizing the translational profile of RPL7A: − (− = <0.9)
ENSG00000149100
  renormalizing the translational profile of EIF3M: − (− = <0.9)
ENSG00000149806
  renormalizing the translational profile of FAU: − (− = <0.9)
ENSG00000150636
  renormalizing the translational profile of CCDC102B: − (− = <0.9)
ENSG00000151474
  renormalizing the translational profile of FRMD4A: − (− = <0.9)
ENSG00000152413
  renormalizing the translational profile of HOMER1: + (+ = 0.9 to 1.5)
ENSG00000152527
  renormalizing the translational profile of PLEKHH2: − (− = <0.9)
ENSG00000154122
  renormalizing the translational profile of ANKH: + (+ = 0.9 to 1.5)
ENSG00000154262
  renormalizing the translational profile of ABCA6: ++ (++ = 1.5 to 2.0)
ENSG00000154358
  renormalizing the translational profile of OBSCN: − (− = <0.9)
ENSG00000154736
  renormalizing the translational profile of ADAMTS5: + (+ = 0.9 to 1.5)
ENSG00000155463
  renormalizing the translational profile of OXA1L: − (− = <0.9)
ENSG00000155621
  renormalizing the translational profile of C9orf85: − (− = <0.9)
ENSG00000156482
  renormalizing the translational profile of RPL30: − (− = <0.9)
ENSG00000156508
  renormalizing the translational profile of EEF1A1: − (− = <0.9)
ENSG00000157168
  renormalizing the translational profile of NRG1: + (+ = 0.9 to 1.5)
ENSG00000161016
  renormalizing the translational profile of RPL8: − (− = <0.9)
ENSG00000161970
  renormalizing the translational profile of RPL26: − (− = <0.9)
ENSG00000162244
  renormalizing the translational profile of RPL29: − (− = <0.9)
ENSG00000162545
  renormalizing the translational profile of CAMK2N1: − (− = <0.9)
ENSG00000163453
  renormalizing the translational profile of IGFBP7: − (− = <0.9)
ENSG00000163584
  renormalizing the translational profile of RPL22L1: − (− = <0.9)
